The term inhibition denotes the drop in the measured response relative to a control, in per cent.

Results on 1 molecule are retold here after paper PMC6934184, “Selective DNA-PKcs inhibition extends the therapeutic index of localized radiotherapy and chemotherapy” (The Journal of Clinical Investigation, 2019).

The target of the assay is T1, IRAK4 (Homo sapiens, UniProt Q9NWZ3).
T1 construct: purchased Thermo Fisher Scientific (Life Technologies) SelectScreen
In words: SelectScreen Z'LYTE. Type of assay: biochemical. In outline:
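Percent values come from Thermo SelectScreen profiling of NU5455, combining activity and binding assays. CSF1R was run in Z'LYTE format at Km app ATP, and CAMK1 in Adapta format with ATP listed at 10.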

T1 sequence (Q9NWZ3 whole entry): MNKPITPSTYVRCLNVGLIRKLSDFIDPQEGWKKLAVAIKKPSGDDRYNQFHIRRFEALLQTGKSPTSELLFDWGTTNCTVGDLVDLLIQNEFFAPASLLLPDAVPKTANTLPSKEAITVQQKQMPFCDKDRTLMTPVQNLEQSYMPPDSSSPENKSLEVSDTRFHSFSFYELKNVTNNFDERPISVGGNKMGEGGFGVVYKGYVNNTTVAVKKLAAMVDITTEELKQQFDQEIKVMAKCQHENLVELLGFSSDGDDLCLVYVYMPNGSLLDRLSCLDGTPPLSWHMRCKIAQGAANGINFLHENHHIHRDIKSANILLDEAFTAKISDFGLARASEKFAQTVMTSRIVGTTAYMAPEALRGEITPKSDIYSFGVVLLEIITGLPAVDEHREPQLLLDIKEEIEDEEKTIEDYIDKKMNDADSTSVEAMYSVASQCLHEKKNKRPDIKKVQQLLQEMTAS

On to `CN(C(=O)CN1CCOCC1)c1ccc2sc3c(-c4cccc5c(=O)cc(N6CC7CCC(C6)O7)oc45)cccc3c2c1` [NU5455], for which the inhibition at 1 µM is -20.5%.
